Data set [1] relates to P388 mouse leukemia cells. The experiment in a line: Life-span-prolonging (anti-tumor) effect on mice subcutaneously inoculated with P388 mouse leukemia cells. The class given is in vivo, mouse (CDF1 female). To be noted: for Survival days ave. ± s. d.: all marked ** (p < 0.01); for response vs control in vivo at 0.1 mg/kg: Mus musculus, P388, iv, read-out: T/C (%); for life-span-prolonging effect (anti-tumor effect), in words: P388 s.c. system. In outline: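 CDF1 female mice (6 weeks), 5 per group, inoculated subcutaneously with P388 leukemia cells; life-span prolongation assessed. Lentinan and picibanil given intravenously on days 1, 3, 5, 7 and 9 after implantation; sizofilan given subcutaneously on days 1 through 9. Statistics by Mann-Whitney test.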

A further data set deals with mouse bone marrow cells. The experiment in a line: In vitro mouse bone marrow cell-proliferation-promoting effect (3H-TdR uptake). The class given is cell-based, mouse (BDF1 female). To be noted: 4 days; for activity at 0.1 µg/mL / activity at 0.01 µg/mL: Mus musculus, Bone marrow cell, 96 h, read-out: Uptake of 3H-TdR (% of control), bone marrow cells. A digest of the protocol: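 Femoral bone marrow monocytes from 6-week female BDF1 mice (Lympholite M fraction, 1×10^6 cells/ml in 10% FCS RPMI 1640) cultured with sample for 4 days at 37 °C, 5% CO2. 3H-TdR (0.5 μCi/well) added for final 6 h; uptake ratio versus vehicle reported as activation rate.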

For the next data set, the system named is mouse splenic lymphocyte. The experiment in a line: In vitro mouse splenic lymphocyte-proliferation-stimulating effect (3H-TdR uptake). The settings on record: 2 days. The class given is cell-based, mouse (BDF1 female). In outline: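 Spleen cells from 6-week-old female BDF1 mice, 2×10^6 cells/ml in 10% FCS RPMI 1640, cultured with vehicle or sample 2 days at 37° C, 5% CO2. ^3H-TdR (0.5 μCi/well) uptake over 6 h by scintillation counting, expressed as % of vehicle.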

Data set [2] deals with mixed lymphocyte culture reaction (spleen cells of C57BL/6 and BALB/C mice). The data set is described as follows: Mixed lymphocyte culture reaction (MLR). The class given is cell-based, mouse (C57BL/6 stimulator, BALB/C responder). To be noted: 42 hours; for activity at 1 µg/mL / activity at 0.1 µg/mL: Mus musculus, Lymphocyte, read-out: MLR activating rate (%). In outline:
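Mouse one-way MLR: mitomycin C-treated (50 μg/ml, 30 min) C57BL/6 spleen cells stimulated BALB/C responder spleen cells, 2×10^6 cells/ml each, cultured 42 h at 37 °C with sample. ³H-thymidine (0.5 μCi/well) incorporation over a further 8 h gave MLR activating rate as % of vehicle uptake.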

The nature of data set [3]: Solubility in water in aqueous Polysorbate 20 solutions. The class given is physicochemical. To be noted: for amount of Polysorbate 20 required for dissolving, relative to that required for Compound b: vs Compound b. How it is done: Compounds a and b comprising a monosaccharide as a constituent sugar which are disclosed in WO 93/05055 were synthesized as above. A 1 mg of each of the present compounds 4, 31 and 33 and Compound a and b was dissolved in 1 ml of an aqueous Polysorbate 20 solution in a variety of concentrations in order to observe visually the property.

For data set [4], the system named is mouse splenic lymphocytes. The data set is described as follows: Influence of Polysorbate on immunostimulating effect (3H-TdR uptake into mouse splenic lymphocytes). The format is cell-based, mouse (BDF1 female). The settings on record: for 3H-TdR uptake in words, compound with Polysorbate 20: 10 μg/ml (0.1% Polysorbate 20) and 1 μg/ml (0.01%) vs 0.1 μg/ml (0.001%); for 3H-TdR uptake: mean of 3 wells. Here is the method:
Experiment was performed with BDF1 female mice (6 weeks old) purchased from NIPPON SLC K.K. Spleens were removed from mice, and spleen cells were brayed with slide glasses and hemolized with NH4 Cl. 2×10^6cells/ml of the spleen cells which had been hemolized were suspended in 10% FCS RPMI 1640. The cell suspension (100 μl/well) and a vehicle or sample (10 μl/well) which was prepared so as to have a final level shown in Table 3 were added into wells of a round-bottomed 96 well plate, and cultured under the condition of 5% CO2 at 37° C. for 2 days. 0.5 μCi/well of ^3 H-thymidine (^3 H-TdR) was added. After 6 hours, the cells were harvested, and the amount of ^3 H-TdR uptaken into nucleus was measured by a liquid scintillation counter. The ratio (%) of the uptake of ^3 H-TdR in the sample group to that in the vehicle group was calculated and used as the in vitro mouse splenic lymphocyte-proliferation-stimulating rate.
A sample of a solution of 1 mg of Compound 33 prepared in Experimental Example 8 in 1 ml of 10% or 0.1% Polysorbate 20, a sample of a solution of 1 mg of Compound b in 1 ml of 10% Polysorbate 20, or 10% and 0.1% Polysorbate 20, were prepared by subjecting to aseptic filtration followed by sequential 10 time dilution with PBS as shown in Table 5 in order to carry out the experiment described in Experimental Example 6.
In this connection, 1 mg of Compound b was insoluble in 0.1% Polysorbate, and thus no experiment was conducted.

The next data set has as its system B16 mouse melanoma cells. The data set is described as follows: Tumor growth inhibition in mice subcutaneously inoculated with B16 mouse melanoma cells. The class given is in vivo, mouse (BDF1 female). To be noted: 0.1 mg/kg i.v. days 1, 5, 9; maximum during 20 days. In outline:
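Female BDF1 mice (6 weeks, n=6/group) bearing subcutaneous B16 melanoma. Tumor volume [(length×width×height)/2] measured on days 8, 12, 16 and 20 after implantation; growth inhibition rate computed from treated vs control tumor volumes.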

For a further data set, the system named is lethally irradiated mice. The experiment in a line: Radioprotective effect: life-span prolongation of lethally irradiated mice. The format is in vivo, mouse (BDF1 female). To be noted: 0.1 mg/kg i.v. days 0, 4, 8, 9 Gy X-ray, groups of 10. A digest of the protocol: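 Female BDF1 mice (6 weeks, groups of 10) given 9 Gy X-ray on day 0, then compound 0.1 mg/kg intravenously by tail vein on days 0, 4 and 8. Survival followed for 40 days.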

Where [5] appears, read: 0.1 mg/kg i.v. on days 1, 5 and 9.
[6] abbreviates: 0.1 mg/kg i.v. on days 1, 5 and 9, survival vs vehicle.
[7] abbreviates: Mus musculus, Splenic lymphocyte, 48 h, 10^0 μg/ml, read-out: Uptake of 3H-TdR (% of control), splenic lymphocytes.
[8] abbreviates: 10% PS20 stock (compound 1 mg/ml), dilution 10^2.
Where [9] appears, read: 10% PS20 stock (compound 1 mg/ml), dilution 10^3.
Where [10] appears, read: 10% PS20 stock (compound 1 mg/ml), dilution 10^4.
Where [11] appears, read: 10% PS20 stock (compound 1 mg/ml), dilution 10^5.

For the compound `CCCCCCCCCCCCCCCCCCCCCCCCCC(=O)N[C@@H](CO[C@H]1O[C@H](CO[C@H]2O[C@H](CO)[C@H](O)[C@H](O)[C@H]2O)[C@H](O)[C@H](O)[C@H]1O)[C@H](O)[C@H](O)CCCCCCCCCCCCCC` [Compound 33, O-α-D-galactopyranosyl-(1→6)-O-α-D-galactopyranosyl-(1→1)-(2S,3S,4R)-2-amino-N-hexacosanoyl-1,3,4-octadecanetriol], the “Survival days ave. ± s. d.” value in data set [1] (setting [5]) was 15.0 ± 0.7 days. The response vs control in vivo at 0.1 mg/kg in data set [1] (setting [6]) stood at 117%. Besides, the “life-span-prolonging effect (anti-tumor effect), in words” value in data set [1] was “intensive anti-tumor effects almost in the same level as that of Compound b”. In addition, the activity at 0.1 µg/mL in the data set with mouse bone marrow cells (10^-1 μg/ml) came to 214%; in data set [2] (1 × 10^-1 μg/ml), 251%. In addition, in the data set on mouse bone marrow cells (10^-2 μg/ml), the activity at 0.01 µg/mL was 763%. For the same compound, the activity at 1 µg/mL in the data set with mouse splenic lymphocyte (setting [7]) stood at 954%; in data set [2] (1 × 10^0 μg/ml), 302%. In addition, the “amount of Polysorbate 20 required for dissolving, relative to that required for Compound b” value in data set [3] is 1/100. For the same compound, the “3H-TdR-uptake-stimulating effect, in words” value in data set [4] (10 μg/ml (0.001% Polysorbate 20)) is “intensive ^3 H-TdR-uptake-stimulating effect”. Also, the “3H-TdR uptake in words, compound with Polysorbate 20” value in data set [4] is on record as “suppressed”. Besides, the 3H-TdR uptake turned out to be 24213 cpm in data set [4] (0.1% PS20 stock (compound 1 mg/ml), dilution 10^2); 23332 cpm in data set [4] (0.1% PS20 stock (compound 1 mg/ml), dilution 10^3); 26249 cpm in data set [4] (0.1% PS20 stock (compound 1 mg/ml), dilution 10^4); 23653 cpm in data set [4] (0.1% PS20 stock (compound 1 mg/ml), dilution 10^5); 119 cpm in data set [4] (setting [8]); 18447 cpm in data set [4] (setting [9]). Also, the 3H-TdR uptake in data set [4] (setting [10]) is on record as 24671 cpm; in data set [4] (setting [11]), 21677 cpm.

As to `CCCCCCCCCCCCCCCCCCCCCCCCCC(=O)N[C@@H](CO[C@H]1O[C@H](CO[C@H]2O[C@H](CO)[C@H](O)[C@H](O)[C@H]2O)[C@@H](O)[C@H](O)[C@H]1O)[C@H](O)[C@H](O)CCCCCCCCCCCCCC` [Compound 31, O-α-D-galactopyranosyl-(1→6)-O-α-D-glucopyranosyl-(1→1)-(2S,3S,4R)-2-amino-N-hexacosanoyl-1,3,4-octadecanetriol], the “Survival days ave. ± s. d.” value in data set [1] (setting [5]) turned out to be 14.6 ± 0.5 days. Further, the response vs control in vivo at 0.1 mg/kg in data set [1] (setting [6]) came out at 114%. In data set [1], the “life-span-prolonging effect (anti-tumor effect), in words” value was “intensive anti-tumor effects almost in the same level as that of Compound b”. In addition, the activity at 0.1 µg/mL with mouse bone marrow cells (10^-1 μg/ml) came out at 296%; in data set [2] (1 × 10^-1 μg/ml), 196%. Besides, the activity at 0.01 µg/mL with mouse bone marrow cells (10^-2 μg/ml) stood at 594%. Moreover, the activity at 1 µg/mL in the data set with mouse splenic lymphocyte (setting [7]) was 615%; in data set [2] (1 × 10^0 μg/ml), 206%. For the same compound, the activity at 0.001 µg/mL in the data set with mouse splenic lymphocyte (Mus musculus, Splenic lymphocyte, 48 h, 10^-3 μg/ml, read-out: Uptake of 3H-TdR (% of control), splenic lymphocytes) was found to be 744%. Moreover, the “amount of Polysorbate 20 required for dissolving, relative to that required for Compound b” value in data set [3] is on record as 1/100.

Turning to `CCCCCCCCCCCCCCCCCCCCCCCCCC(=O)N[C@@H](CO[C@H]1O[C@H](CO)[C@H](O)[C@H](O)[C@H]1O)[C@H](O)[C@H](O)CCCCCCCCCCCCCC` [Compound b, (2S,3S,4R)-1-(α-D-galactopyranosyloxy)-2-hexacosanoylamino-3,4-octadecanediol, reference compound], the “Survival days ave. ± s. d.” value in data set [1] (setting [5]) is reported as 15.6 ± 0.5 days. The response vs control in vivo at 0.1 mg/kg in data set [1] (setting [6]) came to 122%. Further, in the data set with mouse bone marrow cells (10^-1 μg/ml), the activity at 0.1 µg/mL was found to be 381%. The activity at 0.01 µg/mL with mouse bone marrow cells (10^-2 μg/ml) was 438%. For the same compound, the “solubility in Polysorbate, in words” value in data set [3] (1 mg in 0.1% Polysorbate) was “insoluble”. For the same compound, the “3H-TdR uptake in words, compound with Polysorbate 20” value in data set [4] was “suppressed”. Also, the 3H-TdR uptake in data set [4] (setting [8]) is on record as 201 cpm; in data set [4] (setting [9]), 18300 cpm; in data set [4] (setting [10]), 24439 cpm; in data set [4] (setting [11]) it was 25555 cpm.

On to “O-(N-acetyl-2-amino-2-deoxy-α-D-galactopyranosyl)-(1→3)-O-[α-D-glucopyranosyl-(1→2)]-O-α-D-galactopyranosyl-(1→1)-(2S,3S,4R)-2-amino-N-[(R)-2-hydroxytetracosanoyl]-16-methyl-1,3,4-octadecanetriol [Compound 9]”, for which, in data set [1] (setting [5]), the “Survival days ave. ± s. d.” value is 16.4 ± 1.8 days. The “T/C (%)” value in data set [1] (setting [6]) is given as 128%. Also, the “Maximum tumor growth inhibiting rate, TGIR (%)” value in the data set on B16 mouse melanoma cells is recorded as 74.8%. In addition, the “Uptake of 3H-TdR (% of control), bone marrow cells” value is reported as 286 % of control in the data set with mouse bone marrow cells (10^-1 μg/ml) and 91 % of control with mouse bone marrow cells (10^-2 μg/ml). The “Uptake of 3H-TdR (% of control), splenic lymphocytes” value is listed as 902 % of control in the data set on mouse splenic lymphocyte (10^0 μg/ml), 924 % of control in the data set on mouse splenic lymphocyte (10^-1 μg/ml) and 513 % of control with mouse splenic lymphocyte (10^-3 μg/ml). Moreover, the “MLR activating rate (%)” value in data set [2] (1 × 10^0 μg/ml) was 247%; in data set [2] (1 × 10^-1 μg/ml), 205%. Moreover, the “Number of surviving mice” value with lethally irradiated mice (day 10) amounted to 10 mice; with lethally irradiated mice (day 15), 8 mice; with lethally irradiated mice (day 20) it was 5 mice; in the data set on lethally irradiated mice (day 25), 3 mice; with lethally irradiated mice (day 30), 3 mice; with lethally irradiated mice (day 35), 3 mice. Further, in the data set on lethally irradiated mice (day 40), the “Number of surviving mice” value was 3 mice.

The values are drawn from patent US5780441A, “Sphingoglycolipid compounds and therapeutic uses thereof” (Kirin Beer Kabushiki Kaisha, priority 1993, dated 1998).
